Data set [1] concerns Trichomonas vaginalis CDC337. Briefly: Antiprotozoan action. The class given is cell-based. The following applies: 48 h. As to the method: Trichomonas vaginalis CDC337 was cultured in a Diamond's trypticase-yeast-maltose medium (pH 6.8) containing 8% fetal bovine serum (FBS). The protozoan bodies which had been cultured 37° C. for 2 days were centrifuged (1,500 rpm, 10 minutes) and subjected to medium replacement with a fresh medium before adjustment to 2×10^4 bodies/mL, followed by dispensing them in an amount of 100 μL/well in a micro plate (96-well, flat bottom). The test compound was dissolved using 0.1 mol/L hydrochloric acid, which was then diluted to a predetermined concentration with the medium, followed by dispensing 100 μL/well thereof into a micro plate. The minimal test compound concentration at which the movement of the bodies was not observed after culture 37° C. under anaerobic conditions for 2 days was defined as MIC.

Data set [2] in a line: Hygroscopicity test (3): storage at 60° C. and relative humidity of 100% for one week. The format is physicochemical. The following applies: relative humidity of 100%. As to the method: The compound of Example 10 and the comparative compound were stored under conditions of 60° C. and a relative humidity of 100% for one week. As a result, the comparative compound deliquesced.

The nature of data set [3]: Repeated-dose toxicity test in mice (2), hematological test. The following applies: value when control group is set to 100, male ICR mice. The format is in vivo. As to the method: (§1) Six-week old male ICR mice (body weight range: 27.4 to 33.7 g, the number of animals allocated to each group: 5) were used to examine the repeated-dose toxicity. A solution of each test compound was prepared by dissolution in 0.1 mol/L hydrochloric acid. Each compound was subcutaneously administered at a dose of 6.25 or 3.13 mg/kg once a day for 14 days. A sterilized physiological saline was administered to a control group. At the end of the administration period, each mouse was anesthetized with ether. An injection syringe containing a heparin solution (Novo-Heparin Injection 1000, Aventis Pharma K.K.) as an anticoagulant was used for blood collection from abdominal portion of vena cava. A hematological test was carried out for the following items.
(§2) (Hematological Test Items and Determination Methods)
(§3) Red blood cell count (RBC): Two-angle laser flow cytometry
(§4) Reticulocyte count: Flow cytometry after RNA staining

A short description of data set [4]: Repeated-dose toxicity test in mice (1), hematological test. The format is in vivo. The following applies: value when control group is set to 100; 6.25 mg/kg subcutaneously once a day for 7 days, male ICR mice. As to the method:
as §1, with “weight range: 30.6 to 34.8” for “weight range: 27.4 to 33.7”, “30.6 to 34.8 g, the” for “27.4 to 33.7 g, the”, “dissolution in distilled water. Each compound” for “dissolution in 0.1 mol/L hydrochloric acid. Each compound”, “of 6.25 mg/kg once” for “of 6.25 or 3.13 mg/kg once”, “day for 7 days. A” for “day for 14 days. A”, “portion of the vena cava.” for “portion of vena cava.”
as §2, §3, §4

Data set [5] is described as follows: Hygroscopicity test (1): storage at relative humidity of 75% for one week. The format is physicochemical. As to the method:
The compound of Example 4 and the comparative compound were stored under conditions of room temperature and a relative humidity of 75% or 60° C. and a relative humidity of 75% for one week.

Data set [6] in a line: Vero cell proliferation inhibition test (XTT assay). The format is cell-based. The following applies: African green monkey, Vero cells, concentration inhibiting cell proliferation by 50%. As to the method:
The cytotoxicity of each compound was evaluated using Vero cells. Each test compound was dissolved in dimethylsulfoxide (DMSO), which was then subjected to serial dilution with 10% FBS-containing E'MEM and added to a 96-well plate. The cells were suspended in 10% FBS-containing E'MEM, inoculated in an amount of 3,000 cells/well (96-well plate), and cultured in a CO2 incubator at 37° C. for 3 days. The degree of growth of Vero cells was evaluated using a 2,3-bis-(2-methoxy-4-nitro-5-sulfophenyl)-5-[(phenylamino)carbonyl]-2H-tetrazolium=inner salt=monosodium salt (XTT) assay. Thus, an XTT solution containing 1 mg/mL XTT and 25 μmol/L phenazine=methosulfate (PMS) was added to each well, which was then incubated in a CO2 incubator for 2 hours, followed by determining the absorbance of the well at 450 nm (reference: 655 nm) using a micro plate reader. The absorbance ratio between the control (no added compound) and each of the wells was calculated, and the concentration (CC50; μg/mL) of compound inhibiting cell proliferation by 50% was computed.
Background: Tetrazolium dyes change colour on reduction, which living cells bring about.

The subject of data set [7] is Candida albicans TIMM1623. As to the kind of experiment: Antifungal action: susceptibility testing of fungi by microbroth dilution method. The class given is cell-based. The following applies: Candida albicans TIMM1623, RPMI/MOPS pH 7.0, 35° C., 48 hours, 50% growth inhibition. As to the method: Susceptibility testing of fungi was carried out using a microbroth dilution method. The medium used in the susceptibility test was RPMI1640 (RPMI/MOPS) adjusted to pH 7.0 employing 0.165 mol/L morpholinepropanesulfonic acid (MOPS) and 1.0 mol/L sodium hydroxide. A test compound was dissolved in sterile water, which was then subjected to two-fold serial dilution using 100 μL of RPMI/MOPS on a 96-well round bottom plate. Candida albicans TIMM1623 cultured overnight at 35° C. on Sabouraud agar medium was suspended in a sterilized physiological saline. The number of cells was counted under a biological microscope; a suspension of inoculum organism 2×10^3 cells/mL) was prepared using RPMI/MOPS, and 100 μL thereof was then dispensed into each well; and a microplate containing a predetermined concentration of the test compound, the medium, and fungal cells was finally prepared. The plate was cultured at 35° C. for 48 hours. After the end of cultivation, absorbance was determined at 630 nm using an automatic spectrophotometer. The lowest test compound concentration at which 50% growth inhibition was observed as compared to growth control where no test compound was added was defined as IC50.

For data set [8], the system named is Candida albicans TIMM1623. As to the kind of experiment: Mouse Candida infection model test (oral administration). The class given is in vivo. The following applies: 1 mg/kg orally for 7 days from 2 hours after infection, cyclophosphamide-compromised mice, observed 21 days after infection. As to the method: Candida albicans TIMM1623 on a SDA plate, which had been cultured overnight at 35° C. was suspended in a sterilized physiological saline, which was then diluted to prepare a suspension of inoculum organism. To make mice in a transiently compromised state, cyclophosphamide was intraperitoneally administered at 200 mg/kg 4 days before infection and at 100 mg/kg the next day after infection. Into the tail vein of mice was inoculated 0.2 mL of the prepared solution of inoculum Candida albicans TIMM1623 to induce infection (about 3×10^4 CFU/mouse). The test compound was suspended in 0.5% methylcellulose and orally administered at 1 mg/kg of mouse body weight. The treatment was started from 2 hours after infection and carried out for 7 days.

Setting [9] is: 3.13 mg/kg subcutaneously once a day for 14 days.

Four compounds from US7700623B2, “Arylamidine derivative, salt thereof, and antifungal containing these” (Toyama Chemical Co., Ltd., priority 2004, dated 2010) can be followed below.

Molecules are shown by their SMILES. Where a name gives a salt, the structure may show the parent alone.

Broadly, the MIC is the lowest concentration that inhibits growth of the organism. `N=C(N)c1ccc(OCCCC2CCN(CCCOc3ccc(C(=N)N)cc3)CC2)cc1` [Example 10, 4-{3-[4-(3-{4-[amino(imino)methyl]phenoxy}propyl)-1-piperidinyl]propoxy}benzamidine trihydrochloride pentahydrate] registered an MIC in data set [1] of 16 µg/mL. In data set [2], the deliquescence after storage result is listed as “did not deliquesce”.
Consider `N=C(N)c1ccc(OCCCC2CCN(CCCOc3ccc(C(=N)N)cc3)CC2)cc1` [Example 3, 4-{3-[4-(3-{4-[amino(imino)methyl]phenoxy}propyl)-1-piperidinyl]propoxy}benzamidine], for which, in data set [3] (setting [9]), the “Red blood cell count (RBC)” value is recorded as 96.4 and the “Reticulocyte count (Reticulocyte)” value amounted to 93.5. Further, the “Red blood cell count (RBC)” value in data set [3] (6.25 mg/kg subcutaneously once a day for 14 days) was found to be 98.7.
A word on the CC50: it is the concentration that lowers cell viability or growth by half. What is called IC50 is the midpoint of a concentration-inhibition curve. Take `N=C(N)c1ccc(OCCCC2CCN(CCCOc3ccc(C(=N)N)cc3)CC2)cc1` [Example 4, 4-{3-[4-(3-{4-[amino(imino)methyl]phenoxy}propyl)-1-piperidinyl]propoxy}benzamidine hydrochloride]: the “Red blood cell count (RBC)” value in data set [4] turned out to be 94. Besides, the appearance after storage entry in data set [5] (60° C.) and in data set [5] (room temperature) was “powder without any change in the appearance” in each case. Also, the CC50 at 3 days in data set [6] was 25 µg/mL. The compound further displayed an IC50 in data set [7] of at most 0.0039 µg/mL.
In data set [8], `NC(=NO)c1ccc(OCCCC2CCN(CCCOc3ccc(C(N)=NO)cc3)CC2)cc1` [Example 47, 4-{3-[4-(3-{4-[amino(hydroxyimino)methyl]phenoxy}propyl)-1-piperidinyl]propoxy}benzamide=oxime hydrochloride] returned a mice survived of 80%.
